Reference: patent US20220017478A1, “2-BENZOYLAMINOBENZAMIDE DERIVATIVES AS BCL-3 INHIBITORS” (University College Cardiff Consultants Limited, priority 2013, published 2022)
Where two headings read alike, the source gives them in different places.

Experiments:
[1] = Cell Titre Blue viability assay, HEK-293; type: cell-based; conditions: human, HEK-293 cells, HEK-293, 10 μM, vs DMSO
Text: In all assays, a DMSO control was always used.

[2] = system: MDA-MB-231 cells overexpressing Bcl-3; assay: Boyden chamber cell motility assay; type: cell-based, human; conditions: for IC50: Homo sapiens
Description: The migratory or invasive capacity of human mammary cancer cell lines was assessed by the Boyden chamber assay. Cells were seeded in low serum media in a chamber with porous membrane (transparent polyethylene terephthalate (PET) membranes with 8 μm pores) as a solid support for motility assays or with a porous membrane coated with Matrigel Basement Membrane Matrix (BD BioCoat Growth factor reduced invasion chambers) for invasion assay. The cell insert was placed into a well with complete growth media, therefore cells are stimulated by a serum gradient to migrate or invade across the membrane through pores.
Total of 750 μl of complete growth media containing 10% of serum was added to appropriate wells of a 24 well cell culture insert companion plate (BD Biosciences, Oxford, UK). A cell culture insert (BD Biosciences, Oxford, UK) was then carefully placed into each well of the insert companion plate using tweezers. Cells were detached from tissue culture plates using 0.25% w/v Trypsin/EDTA (Invitrogen) and centrifuged at 13000 rpm for 5 min. Cells were washed twice in serum free media by resuspension and centrifugation. The appropriate number of cells (2×10^5 cells/ml for MDA-MB-231 cells) was resuspended in normal growth media containing only 0.10% serum. 350 μl of the cell suspension was added to the appropriate upper chambers of the cell culture inserts and plates were incubated for 24 hrs at 37° C. and 5% CO2.
After incubation, cells on membranes were fixed by replacing the media in the top and bottom sections of the chamber with 70% ice-cold ethanol (Fisher Scientific). Plates were incubated at −20° C. for at least an hour. After fixation, inserts were immersed in a tap water using tweezers to ensure all ethanol was removed. A moistened cotton wool bud was then used to mechanically remove all cells fixed on the upper side of the membranes. Cells were stained by individually immersing the inserts into filtered Harris' Haematoxylin (Sigma, Dorset, UK) for 1 min. Following this, inserts were washed in a beaker of tap water to remove the dye and immersed in 0.5% filtered Eosin (Sigma, Dorset, UK) for 2 min. Stained inserts were then washed again in a tap water.
Glycerol Gelatin (Sigma, Dorset, UK) was heated in a beaker of boiling water and once liquefied, a drop was placed onto an appropriately labelled microscope slide (R. A. Lamb, Loughborough, UK). Membranes were cut out of the insert and transferred onto the corresponding slide with tweezers. Glycerol Gelatin was added to the top of the membranes and a cover slip was placed on the slide under firm pressure. Mounted slides were left to air dry before being analyzed.
We therefore generated a dose response curve to determine an IC50 in this assay. MDA-MB-231 cells overexpressing Bcl-3 were cultivated with Compound 1a and DMSO control over a range of molarities for 24 hrs before being seeded onto Boyden migration chambers. The constant number of live cells present during this assay across samples was monitored by cell count.
Therefore we wanted to establish whether designed analogues have similar or improved ability to suppress cell migration. MDA-MB-231 Bcl-3 over-expressing cells were cultivated with selected analogues (1f, 2a, 2c, 3a) and DMSO control over a range of molarities for 24 hrs before being seeded onto the Boyden motility chambers. Migrated cells were visualized and counted after 24 hrs. The dose response curves were generated using GraphPad software (FIG. 9). The constant number of live cells present during this assay across samples was monitored by cell count.

[3] = MDA-MB-231, Table 3, read-out: Cell motility assay (μM) IC50
[4] = MDA-MB-231 overexpressing Bcl-3, 24 hrs pre-treatment, 24 hrs migration, read-out: IC50 cell motility (Boyden chamber)

| SMILES | viability at 24 h, 10 µM [1] | IC50 [2, 3] | IC50 ([2]; MDA-MB-231 overexpressing Bcl-3, read-out: IC50 cell motility (Boyden chamber)) | cell migration ([2]; 10 nM concentration) | IC50 [2, 4] | migration ability ([2]; MDA-MB-231 cells, 10 μM) |
| --- | --- | --- | --- | --- | --- | --- |
| O=C(Nc1ccccc1C(=O)NCCCN1CCOCC1)c1ccccc1F [Compound 2a] | > 70% | 1.33 µM | 1.33 µM | – | – | – |
| COc1ccc(C(=O)Nc2ccccc2C(=O)NCCN2CCOCC2)cc1 [Compound 1f, 2-[(4-methoxybenzoyl)amino]-N-(2-morpholin-4-ylethyl)benzamide] | > 70% | 0.0289 µM | – | below 50% | 0.0289 µM | – |
| O=C(Nc1ccccc1C(=O)NCCN1CCOCC1)c1ccccc1F [Compound 1a, 2-[(2-fluorobenzoyl)amino]-N-(2-morpholin-4-ylethyl)benzamide] | > 70% | 0.31 µM | – | – | 0.31 µM | significantly suppressed migration ability |
| COc1cccc(C(=O)NCCN2CCOCC2)c1NC(=O)c1ccccc1F [Compound 3a, 2-[(2-fluorobenzoyl)amino]-3-methoxy-N-(2-morpholin-4-ylethyl) benzamide] | > 70% | 0.9 µM | – | – | 0.9 µM | – |
